We go through 7 compounds from patent US5461057A, “Hydro-ethano-indeno-pyridines” (priority 1994, dated 1995).

The test system of data set [1] is histamine-induced dyspnea. Briefly: Bronchodilator (in vivo) Guinea Pig Dyspnea. The conditions noted are these: oral, one hour before histamine challenge. In outline:
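Fasted, unanesthetized guinea pigs (250-350 g) received the test drug orally one hour before exposure to an aerosolized 0.1% histamine solution. Onset of dyspnea was recorded, and data were expressed as number tested over number survived.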

Data set [2] deals with LOX human melanoma cell adhesion to human fibronectin. As to the kind of experiment: LOX melanoma cell adhesion to fibronectin. It counts as cell-based. To be noted: for IC50 / inhibition at 10 µM / inhibition at 50 µM: Homo sapiens, LOX; for IC50: read-out: LOX FN IC50; for inhibition at 10 µM: read-out: % Inhibition at 10 μM; for inhibition at 50 µM: read-out: % Inhibition at 50 μM. In short, it runs like this:
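Compound added to fibronectin-coated (140 ng/well), BSA-blocked wells before LOX cells (1×10^5/well, detached with urea/EDTA). Cells adhered 1 h at 37 °C, then washed. Adherent cells quantified by calcein AM fluorescence (485/530 nm); IC50 for adhesion inhibition.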

Data set [3] is described as follows: Calcein cytotoxicity assay. To be noted: human, lox melanoma cells, calcein AM assay; for CC50 at 2 h: read-out: 2 Hr Tox LD50. Type of data set: cell-based.
For a further data set, the target named is ELAM-1 (Homo sapiens, UniProt P16581). Briefly: cell-based. As to the method: Cell adhesion to ELAM-1 was measured essentially as described previously (Pal et al., J. Biomed. Res. 2: 53, 1992). Undifferentiated HL-60 leukemia cells were prelabelled for 30 minutes with 1 μM calcein AM in DPBS without calcium or magnesium, and the cells were washed twice with the same medium before addition to 96-well plates containing monolayers of mouse L cells (5×10^4 cells/well) transfected with cDNA for the adhesion molecule ELAM-1. Adhesion was allowed to proceed for 30 minutes at room temperature before washing and quantitation of the remaining fluorescent HL-60 cells as described above.
ELAM-1 (E-selectin) is a member of the selectin class of adhesion molecules.

Data set [4] deals with LOX human melanoma cell adhesion to polylysine. As to the kind of experiment: LOX melanoma cell adhesion to polylysine. Type of data set: cell-based. To be noted: read-out: Poly Lys IC50.
In data set [5] the test system is B16-F10 murine melanoma metastasis. Briefly: In vivo experimental metastasis. Also on record: species or system mouse (C57/black6). To be noted: 250 mpk. The method, then:
C57/black6 female mice (6-7 weeks old) were randomized before any treatment into groups of 5 mice per treatment. Compounds of the invention were prepared as a fine suspension in 25% β-cyclodextran and administered i.p. in a volume of 0.2 ml per animal. Two hours after drug (or vehicle) injection, 0.2 ml of DPBS containing 1×10^5 B-16 F10 murine melanoma cells were injected i.v. into the tail vein. After 14 days, animals were sacrificed and lungs were removed. Metastatic lung colonies were counted by visual inspection.
*Pretreatment Time is the time between i.p. drug injection and i.v. tumor

The test system of data set [6] is muricidal (mouse-killing) behavior. As to the kind of experiment: Effects on muricidal behavior in rats. It counts as in vivo, rat. The conditions noted are these: for ED50: Rattus norvegicus, read-out: MUR ED50. An excerpt: Blockade of muricidal (mouse-killing) behavior in rats is used as a measure of evaluating the anti-depressant activity of drugs, and the procedure for carrying out this test is set forth in Int. J. Neuro-pharmacal., 5, 405-411 (1966) are hereby incorporated by reference, and in PCT/US91/06705, filed 20 Sep. 1991, which is mentioned above.
(§1) The results for this test are given below as ED50 's in the units of mg/kg.
MUR refers to the test on the effects on muricidal behavior in rats;

The test system of data set [7] is acetic acid-induced writhing. Briefly: Acetic Acid Writhing Test in Mice. Type of data set: in vivo, mouse. To be noted: for ED50: Mus musculus, po, read-out: WRITH ED50. The text has this:
The blockade of writhing induced by the intraperitoneal injection of acetic acid is an established experimental animal model for the screening of antinociceptive drugs (drugs which prevent the appreciation or transmission of pain sensations).
The procedure for the Acetic Acid Writhing Test in Mice is set forth in Hendershot et al, J. Pharmacol. Exp. Therap. 125:237, (1959); Koster et al., Fed. Proc. 18:412, (1959); and international application PCT/US91/06705, filed 20 Sep. 1991, which are hereby incorporated by reference.
The results for this test are given below in the units of mg/kg which is also abbreviated in this specification as mpk. The results for this test are given as effective doses (ED50 's).
(In general: In writhing tests, fewer writhes than in controls are read as antinociception.)

The subject of data set [8] is discrete trial avoidance behavior. As to the kind of experiment: Conditioned avoidance suppression in rats. It counts as in vivo, rat. To be noted: for minimal effective dose: Rattus norvegicus, read-out: CAR minimum effective dose (MED). The text has this: See Ann. N.Y. Acad. Sci. 66,740 (1957) which is hereby incorporated by reference. The procedure for carrying out this test is set forth in Int. J. Neuro-pharmacal., 5, 405-411 (1966) which is hereby incorporated by reference and in PCT/US91/06705, filed 20 Sep. 1991, which is mentioned above.
The results for this test are given below as minimum effecive doses (MED)in the units of mg/kg.
As used herein, CAR refers to the conditioned avoidance suppression test in rats;

Another data set concerns metrazole. As to the kind of experiment: Anti-metrazole test in mice. Type of data set: in vivo, mouse. To be noted: for ED50: Mus musculus, read-out: MTZ ED50. As to the method:
The anti-metrazole test in mice was carried out as described in Everett et al, J. Pharmacol. Exp. Therap. 81:402-407 (1944); which is hereby incorporated by reference.
The results for this test are given below as ED50's in the units of mg/kg.

Another data set concerns TBZ-induced ptosis. Briefly: Effects on tetrabenazine (TBZ)-induced ptosis in mice. It counts as in vivo, mouse. To be noted: for ED50: Mus musculus, po; for TBZ ED50: p.o.
Description: Clinically active antidepressant drugs are known to block TBZ-induced ptosis in mice (See Psychosomatic Medicine, Nodine and Moyer, Eds. Lea and Febiger, Philadelphia, 1962, pp 683-90, which is hereby incorporated by reference). Activity in this test is used to predict anti-depressant activity in man.
The procedure for the TBZ-Induced Ptosis Test in Mice is set forth in Psychosomatic Medicine, Nodine and Moyer, Eds. Lea and Febiger, which is hereby incorporated by reference and in PCT/US91/06705, filed 20 Sep. 1991, which is mentioned above.
as §1
TBZ refers to the test of effects on tetrabenazine induced ptosis in mice, p.o.;

A further data set deals with pulmonary resistance. Briefly: Pulmonary Resistance in the Anesthetized Rat. Type of data set: in vivo. To be noted: 0.5 mpk, i.v., mean of 5 animals, % decrease in pre-drug baseline resistance. In outline: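 Dialurethane-anesthetized rats (400-500 g) with tracheal and esophageal catheters; air flow and tracheal/esophageal pressures used to derive pulmonary resistance. Compounds given i.v. to 5 animals each; values are mean % decrease from pre-drug baseline resistance.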

Molecules are shown by their SMILES. Like-named read-outs stand apart in the source and are kept apart here. A value given as a limit tells only on which side of the number the result lay.

Sequence of ELAM-1 (P16581 22-610): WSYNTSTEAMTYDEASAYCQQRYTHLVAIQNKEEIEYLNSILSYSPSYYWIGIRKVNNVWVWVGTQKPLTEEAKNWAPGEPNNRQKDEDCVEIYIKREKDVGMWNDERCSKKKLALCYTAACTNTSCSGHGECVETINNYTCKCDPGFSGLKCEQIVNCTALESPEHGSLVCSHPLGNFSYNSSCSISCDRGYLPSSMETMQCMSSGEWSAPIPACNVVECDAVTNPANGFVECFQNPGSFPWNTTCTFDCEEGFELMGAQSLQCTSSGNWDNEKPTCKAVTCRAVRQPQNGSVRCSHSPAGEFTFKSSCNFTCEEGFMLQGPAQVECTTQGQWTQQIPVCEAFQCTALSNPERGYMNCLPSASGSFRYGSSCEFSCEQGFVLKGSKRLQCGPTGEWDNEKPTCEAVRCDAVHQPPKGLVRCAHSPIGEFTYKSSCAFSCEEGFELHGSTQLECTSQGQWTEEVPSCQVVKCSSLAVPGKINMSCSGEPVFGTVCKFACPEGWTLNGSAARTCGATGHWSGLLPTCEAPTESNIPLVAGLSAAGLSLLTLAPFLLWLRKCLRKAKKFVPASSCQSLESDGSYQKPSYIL

On to `CN1C2CCC1C1C(=C(c3ccc(Cl)cc3)c3cc(F)ccc31)C2` (stereo not shown) [Compound A], for which, in data set [1] (100 mg/kg), the DYSP survivors is 2/3. The IC50 amounted to 4.8 µM in [2] (1 h), 21.8 µM on ELAM-1 and 11.8 µM in [4]. Besides, in data set [2], the inhibition at 10 µM was found to be 81.1%. The inhibition at 50 µM in data set [2] amounted to 101%. Further, the CC50 at 2 h in data set [3] is 17.4 µM. Moreover, in data set [3] (6 hours, read-out: 6 Hr Tox LD50), the CC50 at 6 h is 5.9 µM.

For the compound `O=P1(N(CCCl)CCCl)NCCCO1` (stereo not shown) [Cytoxan, reference compound], the “effectiveness as positive control” value in data set [5] is “showed similar effectiveness”. Moreover, in data set [5] (pretreatment time 30 min), the “% Inhibition of lung metastasis” value amounted to 77.8% and the “Number of Lung Melanoma Colonies” value stood at 17.6 ± 4.2.

`COc1ccc2c(c1)C(O)(c1ccccc1)C1CC3CCC(C21)N3C` (stereo not shown) [DDD]: the ED50 was 3.8 mg/kg in data set [6], greater than 30 mg/kg in data set [7], greater than 30 mg/kg in the data set with metrazole and greater than 30 mg/kg in the data set on TBZ-induced ptosis. For the same compound, the minimal effective dose in data set [8] was greater than 25 mg/kg.

Turning to `COc1ccc2c(c1)C(c1ccccc1)C1=C2C2CCC(C1)N2C` (stereo not shown) [EE], the ED50 (in data set [7]; with metrazole; in the data set on TBZ-induced ptosis) was greater than 30 mg/kg in each case. In [8], the minimal effective dose was greater than 25 mg/kg.

Take `COc1ccc(C2(O)c3ccccc3C3C4CCC(CC32)N4C)cc1` (stereo not shown) [PP]: the ED50 was greater than 10 mg/kg in data set [6], greater than 30 mg/kg in data set [7], greater than 30 mg/kg in the data set on metrazole and greater than 30 mg/kg in the data set on TBZ-induced ptosis. For the same compound, the minimal effective dose in [8] is greater than 25 mg/kg. The responders at 50 mg/kg in [1] (Cavia porcellus, 1 h, 50 mg/kg, read-out: DYSP survivors (converted)) is 0%. Also, the inhibition in vivo at 0.5 mg/kg in the data set on pulmonary resistance (Rattus norvegicus, iv, read-out: Pulmonary Resistance in Rats, % Inhibition) was 62%. Besides, the inhibition at 10 µM in data set [2] (10 μM) was 4.9%. Also, the inhibition at 50 µM in data set [2] (50 μM) worked out at 21.9%.

Take `CN1C2CCC1C1C(=C(c3ccccc3)c3ccccc31)C2` (stereo not shown) [T]: the ED50 is greater than 10 mg/kg in data set [6], 17.3 mg/kg in data set [7] and greater than 30 mg/kg with metrazole. Moreover, the minimal effective dose in [8] was greater than 25 mg/kg. Further, the DYSP survivors in data set [1] (50 mg/kg) was 0/3; in data set [1] (100 mg/kg), 2/3. The “Pulmonary Resistance in Rats, % Inhibition” value with pulmonary resistance is 46%. The “% Inhibition at 10 μM” value in data set [2] (10 μM) turned out to be 2.2%. Further, the “% Inhibition at 50 μM” value in [2] (50 μM) turned out to be 89.3%. Moreover, the IC50 in data set [2] (Table 4, 1 hour adhesion) was 19.5 µM; in data set [4], 115 µM. In addition, the CC50 at 2 h in data set [3] was 135 µM. For the same compound, the “TBZ ED50” value in the data set with TBZ-induced ptosis was 5.7 mg/kg.

On to `CN1C2CCC1C1C(=C(c3ccccc3)c3ccccc31)C2` (stereo not shown) [U], for which the “MUR ED50” value in [6] is given as 14.1 mg/kg. For the same compound, the “WRITH ED50” value in data set [7] (p.o.) was greater than 30 mg/kg. In addition, in data set [8], the “CAR minimum effective dose (MED)” value is reported as greater than 25 mg/kg. Also, in the data set on metrazole, the “MTZ ED50” value is given as greater than 30 mg/kg. Also, in data set [2] (10 μM), the “% Inhibition at 10 μM” value is -18.7%. Besides, the “% Inhibition at 50 μM” value in data set [2] (50 μM) was 21.0%. Besides, the “TBZ ED50” value in the data set with TBZ-induced ptosis is on record as 1.3 mg/kg.

The term IC50 denotes the point on the concentration scale where inhibition reaches its midpoint. One may read the inhibition as the drop in the measured response relative to a control, in per cent. The ED50 is the dose at which the effect has come halfway, by size or by number of responders. A word on the % Inhibition: it is the change of the read-out against control, counted positive when it falls.
